Measured values reported in paper PMC6934184, “Selective DNA-PKcs inhibition extends the therapeutic index of localized radiotherapy and chemotherapy” (The Journal of Clinical Investigation, 2019).

Biological target: T1, KDR (VEGFR2) (Homo sapiens, UniProt P35968)
T1 construct: purchased Thermo Fisher Scientific (Life Technologies) SelectScreen
Assay: SelectScreen Z'LYTE
Type: biochemical
How it was run: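 SelectScreen broad panel; activity (Z'LYTE, Adapta) plus binding formats. ATP: Km app for CSF1R Z'LYTE; 10 for CAMK1 Adapta. Readout = % per kinase.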

T1 sequence (P35968 20-1356): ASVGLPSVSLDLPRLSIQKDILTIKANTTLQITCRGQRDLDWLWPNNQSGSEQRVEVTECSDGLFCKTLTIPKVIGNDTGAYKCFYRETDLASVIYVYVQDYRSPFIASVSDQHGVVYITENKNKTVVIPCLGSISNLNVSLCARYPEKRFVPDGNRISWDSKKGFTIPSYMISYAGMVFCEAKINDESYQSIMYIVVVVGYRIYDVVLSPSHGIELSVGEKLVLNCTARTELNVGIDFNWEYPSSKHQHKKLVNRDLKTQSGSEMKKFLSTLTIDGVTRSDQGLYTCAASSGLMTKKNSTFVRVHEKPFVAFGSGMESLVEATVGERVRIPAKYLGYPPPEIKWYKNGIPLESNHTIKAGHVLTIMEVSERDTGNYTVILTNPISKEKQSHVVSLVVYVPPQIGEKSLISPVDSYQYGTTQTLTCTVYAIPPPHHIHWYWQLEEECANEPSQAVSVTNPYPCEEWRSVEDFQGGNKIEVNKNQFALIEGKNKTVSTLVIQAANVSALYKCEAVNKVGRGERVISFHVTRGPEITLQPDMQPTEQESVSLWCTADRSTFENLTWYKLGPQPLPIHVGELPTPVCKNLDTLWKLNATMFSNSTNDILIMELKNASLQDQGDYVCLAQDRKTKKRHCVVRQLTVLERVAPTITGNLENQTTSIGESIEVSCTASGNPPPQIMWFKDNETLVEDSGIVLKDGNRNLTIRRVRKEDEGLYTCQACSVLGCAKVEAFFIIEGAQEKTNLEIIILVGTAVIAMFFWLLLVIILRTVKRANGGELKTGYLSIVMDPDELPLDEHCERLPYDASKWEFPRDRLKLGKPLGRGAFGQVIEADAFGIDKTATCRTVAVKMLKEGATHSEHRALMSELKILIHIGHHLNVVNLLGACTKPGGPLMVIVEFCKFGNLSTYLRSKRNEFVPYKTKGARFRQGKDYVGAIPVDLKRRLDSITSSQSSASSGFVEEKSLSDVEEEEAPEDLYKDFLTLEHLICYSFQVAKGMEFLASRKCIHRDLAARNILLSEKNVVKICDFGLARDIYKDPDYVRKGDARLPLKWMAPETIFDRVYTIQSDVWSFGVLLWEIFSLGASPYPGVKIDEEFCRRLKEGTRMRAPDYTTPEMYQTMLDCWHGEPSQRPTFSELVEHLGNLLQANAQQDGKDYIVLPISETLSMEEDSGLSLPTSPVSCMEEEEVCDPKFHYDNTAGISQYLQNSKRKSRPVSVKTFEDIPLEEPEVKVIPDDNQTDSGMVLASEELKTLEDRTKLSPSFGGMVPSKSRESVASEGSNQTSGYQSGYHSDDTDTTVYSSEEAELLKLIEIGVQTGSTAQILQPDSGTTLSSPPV

CN(C(=O)CN1CCOCC1)c1ccc2sc3c(-c4cccc5c(=O)cc(N6CC7CCC(C6)O7)oc45)cccc3c2c1 [NU5455]
inhibition at 1 µM: 1.8%
